Data taken from patent US12233081B2, “Hygromycin a compounds and methods of treating spirochete diseases” (priority 2018, dated 2025).
Values after ≈ are worked out from the molar mass of the structure shown.

What was measured:
B. burgdorferi N40 = assay: C3H mice infected with Borrelia burgdorferi, cell counts in skin tissue; assay type: in vivo; conditions: for # of B. burgdorferi cells in 100 mg skin tissue: 5 days of dosing
Description: C3H mice (Charles River Laboratories) are used in classical Lyme disease infection model. Mice were rested for more than 1 day after delivery before infected with 10^5 B. burgdorferi N40 cells by subcutaneous injection. Infection was established for 3 weeks. 100 μl of saline, ceftriaxone or hygromycin A was administered by IP injection. Compounds of the invention can also be tested for efficacy as described herein.
Ceftriaxone (USP grade) was purchased from Sigma-Aldrich. Saline was purchased from Baxter Healthcare. Ceftriaxone powder was dissolved into saline to 31.2 mg/ml solution. Hygromycin A stock solution at 200 mg/ml was diluted into saline to make 50 mg/ml (250 mg/kg), 15 mg/ml (75 mg/kg), 14 mg/ml (70 mg/kg), 10 mg/ml (50 mg/kg) and 5 mg/ml (25 mg/kg) solutions.
In the B. burgdorferi mice infection model, skin is the tissue with highest bacterial burden. After sacrificing mice 2 days after 5 days of dosing, we took 100 mg skin tissue from mouse ear, homogenized the tissue and plated on BSK-II semi-agar plates for cell number counts. No colony appearing on the plates is considered as clearance of the infection.

Bifidobacterium longum = assay: microbroth dilution MIC; assay type: cell-based
Description: (§1) AH MIC testing of bacteria followed the Clinical and Laboratory Standards Institute (CLSI) guidelines for antimicrobial testing of aerobic, bacteria (Methods for Dilution Antimicrobial Susceptibility Tests for Bacteria that Grow Aerobically; Approved Standard—Tenth Edition, M07-A10; Performance Standards for Antimicrobial Susceptibility Testing; Twenty-fifth Informational Supplement, M100-S25), and guidelines for antimicrobial testing of anaerobic bacteria (Methods for Antimicrobial Susceptibility Testing of Anaerobic Bacteria, 8th Edition. M11-A8). Compounds of the invention can also be tested for activity as described herein.
(§2) Briefly, the microbroth dilution MIC method was used to quantitatively measure the in vitro antibacterial activity of hygromycin A against the given bacterial isolates shown in the table below. S. aureus, E. coli and P. aeruginosa were grown in cation-adjusted Mueller-Hinton broth, anaerobes were grown in Schaedler Anaerobe Media, Borrelia species were grown in BSK-II medium. Bacteria from liquid cultures were diluted into the assay plate to achieve 5×10^5 CFU/mL. Assays plates were prepared by 2-fold dilution of compound across the plate and included a positive growth control. […] Borrelia species were incubated in a microaerophilic chamber at 34° C. for 5-7 days and scored visually for medium color change from pink to yellow of the phenol red present in the medium. The lowest concentration of antibiotics that pre vented color change was interpreted, as the MIC.

Enterococcus faecalis = assay: microbroth dilution MIC; assay type: cell-based
Description: as §1, §2

E. coli = assay: microbroth dilution MIC; assay type: cell-based; conditions: Escherichia coli
Description: as §1, §2

Borrelia bavariensis = assay: microbroth dilution MIC; assay type: cell-based; conditions: Borreliella bavariensis
Description: as §1, §2

Borrelia burgdorferi = assay: microbroth dilution MIC; assay type: cell-based; conditions: Borreliella burgdorferi
Description: as §1, §2

Bacteroides fragilis = assay: microbroth dilution MIC; assay type: cell-based
Description: as §1, §2

P. aeruginosa = assay: microbroth dilution MIC; assay type: cell-based; conditions: Pseudomonas aeruginosa
Description: as §1, §2

Borrelia turcica = assay: microbroth dilution MIC; assay type: cell-based
Description: as §1, §2

Borrelia afzelii = assay: microbroth dilution MIC; assay type: cell-based; conditions: Borreliella afzelii
Description: as §1, §2

Lactobacillus reuteri = assay: microbroth dilution MIC; assay type: cell-based; conditions: Limosilactobacillus reuteri
Description: as §1, §2

Borrelia garinii = assay: microbroth dilution MIC; assay type: cell-based; conditions: Borreliella garinii
Description: as §1, §2

S. aureus = assay: microbroth dilution MIC; assay type: cell-based; conditions: Staphylococcus aureus
Description: as §1, §2

Treponema pallidum = assay: microbroth dilution MIC; assay type: cell-based

What does the source list for CC(=O)[C@H]1O[C@@H](Oc2ccc(/C=C(\C)C(=O)N[C@@H]3[C@H](O)[C@@H](O)[C@H]4OCO[C@H]4[C@@H]3O)cc2O)[C@@H](O)[C@@H]1O [Hygromycin A]?
# of B. burgdorferi cells in 100 mg skin tissue (B. burgdorferi N40; 25 mg/kg Oral gavage): <1; # of B. burgdorferi cells in 100 mg skin tissue (B. burgdorferi N40; 50 mg/kg Oral gavage): <1; # of B. burgdorferi cells in 100 mg skin tissue (B. burgdorferi N40; 70 mg/kg Oral gavage): <1; # of B. burgdorferi cells in 100 mg skin tissue (B. burgdorferi N40; 75 mg/kg IP injection): <1; # of B. burgdorferi cells in 100 mg skin tissue (B. burgdorferi N40; 250 mg/kg Oral gavage): <1; clearance of the Borrelia burgdorferi infection (B. burgdorferi N40; 5 days of treatment, both IP injection and oral gavage): cleared the Borrelia burgdorferi infection; MIC (Bifidobacterium longum): 8 µg/mL (≈ 15.6 µM); MIC (Enterococcus faecalis): 128 µg/mL (≈ 250 µM); MIC (E. coli): 1000 µg/mL (≈ 1960 µM); MIC (Borrelia bavariensis): 0.25 µg/mL (≈ 0.489 µM); MIC (Borrelia burgdorferi): 0.12 µg/mL (≈ 0.235 µM); MIC (Bacteroides fragilis): 128 µg/mL (≈ 250 µM); MIC (P. aeruginosa): > 1000 µg/mL; MIC (Borrelia turcica): 0.25 µg/mL (≈ 0.489 µM); MIC (Borrelia afzelii): 0.25 µg/mL (≈ 0.489 µM); MIC (Lactobacillus reuteri): 32 µg/mL (≈ 62.6 µM); MIC (Borrelia garinii): 0.25 µg/mL (≈ 0.489 µM); MIC (S. aureus): 32 µg/mL (≈ 62.6 µM); MIC (Treponema pallidum): 0.03 µg/mL (≈ 0.0587 µM)
